Measured values as given in the NIST ThermoML archive (doi:10.1021/je3001377).
± gives the expanded uncertainty stated by the source.

Conditions: 298.15 K; 101.33 kPa; Liquid; Cone and plate viscometry

Structure (SMILES) | viscosity
CCCCn1cc[n+](CCCC)c1.CS(=O)(=O)[O-] [1,3-dibutyl-1H-imidazolium methanesulfonate] | 31.9 ± 2.4 mPa·s
CS(=O)(=O)[O-].Cn1cc[n+](C)c1 [1,3-dimethyl-1H-imidazolium methanesulfonate] | 32.9 ± 1.1 mPa·s
CCCCn1cc[n+](C)c1.CS(=O)(=O)[O-] [1-butyl-3-methylimidazolium methanesulfonate] | 111 ± 14 mPa·s
CCn1cc[n+](C)c1.CS(=O)(=O)[O-] [1-ethyl-3-methylimidazolium methanesulfonate] | 70.5 ± 2.7 mPa·s
